Test results as given in patent US20220313701A1, “MODULATORS OF TREX1” (Constellation Pharmaceuticals, Inc., priority 2019, published 2022).

What was measured:
full length human TREX1 = target: T1, full length human TREX1 (Homo sapiens, UniProt Q9NSU2); experiment: TREX1 Biochemical Assay (fluorescence assay, degradation of dsDNA substrate); settings: 150 pM TREX1, 60 nM dsDNA substrate, 25 minutes at room temperature
T1 construct: N-terminally His-Tev tagged full length human TREX1; His-Tev (His tag with TEV site) (N); made in house; host or cells: E. coli
T1 sequence (Q9NSU2 1-314): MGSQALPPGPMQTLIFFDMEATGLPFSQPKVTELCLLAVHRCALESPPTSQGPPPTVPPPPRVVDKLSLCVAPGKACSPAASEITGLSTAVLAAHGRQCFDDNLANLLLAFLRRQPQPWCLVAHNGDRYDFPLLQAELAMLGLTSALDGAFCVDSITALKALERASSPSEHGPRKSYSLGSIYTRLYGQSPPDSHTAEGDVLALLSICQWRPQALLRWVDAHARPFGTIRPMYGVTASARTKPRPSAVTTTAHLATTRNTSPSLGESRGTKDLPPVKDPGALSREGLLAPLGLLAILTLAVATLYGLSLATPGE
Procedure, shortened: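 N-terminally His-Tev-tagged enzyme expressed in E. coli, 150 pM, with 60 nM dual-labelled dsDNA (TEX615/quencher) in pH 7.4 Tris buffer with MgCl2, 1% DMSO; 10-point dose-response, 25 min at room temperature, then EDTA quench. Fluorescence at 615 nm (excitation 570 nm); IC50 from four-parameter fit against pre-quenched and no-inhibitor controls.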

[1] = target: T2, human TREX2 (residues M44-A279) (Homo sapiens, UniProt Q9BQ50); experiment: TREX2 Biochemical Assay (fluorescence assay, degradation of dsDNA substrate); settings: 2.5 nM TREX2, 60 nM dsDNA substrate, 25 minutes at room temperature
T2 construct: human TREX2 (residues M44-A279, expressed in E. coli); His-Tev (His tag with TEV site) (N); made in house; host or cells: E. coli
T2 sequence (Q9BQ50 44-279 isoform Q9BQ50-1): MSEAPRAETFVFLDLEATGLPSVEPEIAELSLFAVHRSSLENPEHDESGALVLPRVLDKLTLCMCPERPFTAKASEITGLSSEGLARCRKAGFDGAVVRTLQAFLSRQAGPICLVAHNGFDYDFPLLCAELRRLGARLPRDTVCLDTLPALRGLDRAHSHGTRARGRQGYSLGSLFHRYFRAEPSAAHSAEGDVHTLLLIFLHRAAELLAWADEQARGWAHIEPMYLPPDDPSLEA
Procedure, shortened: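 Final conditions: 2.5 nM His-Tev-tagged TREX2 (E. coli-expressed), 60 nM fluorophore/quencher-labelled dsDNA, 50 mM Tris pH 7.4, 150 mM NaCl, 100 mM MgCl2, 1% DMSO; 10-point compound dose-response. Incubated 25 min at room temperature, then EDTA-quenched; fluorescence read at ex 570/em 615 nm. IC50 from four-parameter fit against pre-quenched and no-inhibitor controls.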

Row | SMILES | IC50 (full length human TREX1) [µM] | IC50 [1] [µM]
1 | Cc1nc(-c2cn(C)nc2-c2ccccc2)cc(N2CCC(O)(c3ccc(F)c(F)c3)CC2)n1 [Example 100, 4-(3,4-difluorophenyl)-1-(2-methyl-6-(1-methyl-3-phenyl-1H-pyrazol-4-yl)pyrimidin-4-yl)piperidin-4-ol] | 0.1 to 1 | > 100
2 | Cc1nc(-c2cn(C)nc2Cc2ccccc2)cc(N2CCC(O)(c3ccc(F)c(F)c3)CC2)n1 [Example 101, 1-(6-(3-benzyl-1-methyl-1H-pyrazol-4-yl)-2-methylpyrimidin-4-yl)-4-(3,4-difluorophenyl)piperidin-4-ol] | 0.1 to 1 | > 100
3 | Cc1nc(N2CCC(O)(c3ccc(F)c(F)c3)CC2)cc(-n2ccnc2-c2ccccn2)n1 [Example 106, 4-(3,4-difluorophenyl)-1-(2-methyl-6-(2-(pyridin-2-yl)-1H-imidazol-1-yl)pyrimidin-4-yl)piperidin-4-ol] | 1 to 10 | > 100
4 | Cc1nc(N2CCC(O)(c3ccc(F)c(F)c3)CC2)cc(N(C)C2(c3ccccn3)CC2)n1 [Example 108, 4-(3,4-difluorophenyl)-1-(2-methyl-6-(methyl(1-(pyridin-2-yl)cyclopropyl)amino)pyrimidin-4-yl)piperidin-4-ol] | 0.1 to 1 | > 100

The remaining lines, values ahead:

Row | IC50 (full length human TREX1) [µM] | IC50 [1] [µM] | SMILES
5 | 1 to 10 | > 100 | Cc1nc(N2CCC(O)(c3ccc(F)c(F)c3)CC2)cc(N2CCOC[C@H]2c2ccccc2)n1 [Example 104, (R)-4-(3,4-difluorophenyl)-1-(2-methyl-6-(3-phenylmorpholino)pyrimidin-4-yl)piperidin-4-ol]
6 | 1 to 10 | > 100 | Cc1nc(N2CCC(O)(c3ccc(F)c(F)c3)CC2)cc(N2CCOC[C@@H]2c2ccccc2)n1 [Example 105, (S)-4-(3,4-difluorophenyl)-1-(2-methyl-6-(3-phenylmorpholino)pyrimidin-4-yl)piperidin-4-ol]
7 | 1 to 10 | > 100 | Cc1nc(N2CCC(O)(c3ccc(F)c(F)c3)CC2)cc(-n2c(C)cnc2-c2ccccn2)n1 [Example 107, 4-(3,4-difluorophenyl)-1-(2-methyl-6-(5-methyl-2-(pyridin-2-yl)-1H-imidazol-1-yl)pyrimidin-4-yl)piperidin-4-ol]
